Laboratory results: PubChem BioAssay (NCI)
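48-hour exposure; five concentrations; linearly interpolated endpoints. The concentration for full growth arrest is given as TGI.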

Assays:
Assay in all cases: NCI tumour cell line growth inhibition, 48 h
786-0 renal = system: 786-0 renal
A498 renal = system: A498 renal
A549 NSCLC = system: A549 NSCLC
ACHN renal = system: ACHN renal
BT-549 breast = system: BT-549 breast
CCRF-CEM leukemia = system: CCRF-CEM leukemia
COLO 205 colon = system: COLO 205 colon
DU-145 prostate = system: DU-145 prostate
EKVX NSCLC = system: EKVX NSCLC
HCC-2998 colon = system: HCC-2998 colon
HCT-15 colon = system: HCT-15 colon
HL-60(TB) leukemia = system: HL-60(TB) leukemia
HOP-62 NSCLC = system: HOP-62 NSCLC
HS 578T breast = system: HS 578T breast
HT29 colon = system: HT29 colon
IGROV1 ovarian = system: IGROV1 ovarian
K-562 leukemia = system: K-562 leukemia
KM12 colon = system: KM12 colon
LOX IMVI melanoma = system: LOX IMVI melanoma
M14 melanoma = system: M14 melanoma
MALME-3M melanoma = system: MALME-3M melanoma
MCF7 breast = system: MCF7 breast
MDA-MB-231 breast = system: MDA-MB-231 breast
MDA-MB-435 = system: MDA-MB-435
MDA-N = system: MDA-N
MOLT-4 leukemia = system: MOLT-4 leukemia
NCI-H226 lung = system: NCI-H226 lung
NCI-H23 lung = system: NCI-H23 lung
NCI-H460 lung = system: NCI-H460 lung
NCI-H522 lung = system: NCI-H522 lung
NCI/ADR-RES ovarian = system: NCI/ADR-RES ovarian
OVCAR-3 ovarian = system: OVCAR-3 ovarian
OVCAR-4 ovarian = system: OVCAR-4 ovarian
OVCAR-5 ovarian = system: OVCAR-5 ovarian
OVCAR-8 ovarian = system: OVCAR-8 ovarian
PC-3 prostate = system: PC-3 prostate
RPMI-8226 leukemia = system: RPMI-8226 leukemia
RXF 393 renal = system: RXF 393 renal
SF-268 CNS = system: SF-268 CNS
SF-295 CNS = system: SF-295 CNS
SF-539 CNS = system: SF-539 CNS
SK-MEL-2 melanoma = system: SK-MEL-2 melanoma
SK-MEL-28 melanoma = system: SK-MEL-28 melanoma
SK-MEL-5 melanoma = system: SK-MEL-5 melanoma
SK-OV-3 ovarian = system: SK-OV-3 ovarian
SN12C renal = system: SN12C renal
SNB-19 CNS = system: SNB-19 CNS
SNB-75 CNS = system: SNB-75 CNS
SR leukemia = system: SR leukemia
SW-620 colon = system: SW-620 colon
T-47D breast = system: T-47D breast
TK-10 renal = system: TK-10 renal
U251 CNS = system: U251 CNS
UACC-62 melanoma = system: UACC-62 melanoma
UO-31 renal = system: UO-31 renal
CAKI-1 renal = system: CAKI-1 renal
HCT-116 colon = system: HCT-116 colon
HOP-92 NSCLC = system: HOP-92 NSCLC

CC(=O)N(C(C)=O)n1c(Cc2ccc(Cl)cc2)nn(C(C)=O)c1=O
TGI (786-0 renal): > 100000 nM
TGI (A498 renal): > 100000 nM
TGI (A549 NSCLC): > 100000 nM
TGI (ACHN renal): > 100000 nM
TGI (BT-549 breast): > 100000 nM
TGI (CCRF-CEM leukemia): > 100 µM
TGI (COLO 205 colon): > 100000 nM
TGI (DU-145 prostate): > 100000 nM
TGI (EKVX NSCLC): > 100000 nM
TGI (HCC-2998 colon): > 100000 nM
TGI (HCT-15 colon): > 100000 nM
TGI (HL-60(TB) leukemia): > 100 µM
TGI (HOP-62 NSCLC): > 100000 nM
TGI (HS 578T breast): > 100000 nM
TGI (HT29 colon): > 100000 nM
TGI (IGROV1 ovarian): > 100000 nM
TGI (K-562 leukemia): > 100000 nM
TGI (KM12 colon): > 100000 nM
TGI (LOX IMVI melanoma): > 100000 nM
TGI (M14 melanoma): > 100000 nM
TGI (MALME-3M melanoma): > 100000 nM
TGI (MCF7 breast): > 100 µM
TGI (MDA-MB-231 breast): > 100000 nM
TGI (MDA-MB-435): > 100000 nM
TGI (MDA-N): > 100000 nM
TGI (MOLT-4 leukemia): > 100 µM
TGI (NCI-H226 lung): > 100000 nM
TGI (NCI-H23 lung): > 100000 nM
TGI (NCI-H460 lung): > 100 µM
TGI (NCI-H522 lung): > 100000 nM
TGI (NCI/ADR-RES ovarian): > 100000 nM
TGI (OVCAR-3 ovarian): > 100000 nM
TGI (OVCAR-4 ovarian): > 100000 nM
TGI (OVCAR-5 ovarian): > 100000 nM
TGI (OVCAR-8 ovarian): > 100000 nM
TGI (PC-3 prostate): > 100000 nM
TGI (RPMI-8226 leukemia): > 100000 nM
TGI (RXF 393 renal): > 100000 nM
TGI (SF-268 CNS): > 100000 nM
TGI (SF-295 CNS): > 100000 nM
TGI (SF-539 CNS): > 100000 nM
TGI (SK-MEL-2 melanoma): > 100000 nM
TGI (SK-MEL-28 melanoma): > 100000 nM
TGI (SK-MEL-5 melanoma): > 100000 nM
TGI (SK-OV-3 ovarian): > 100000 nM
TGI (SN12C renal): > 100000 nM
TGI (SNB-19 CNS): > 100000 nM
TGI (SNB-75 CNS): > 100000 nM
TGI (SR leukemia): > 100 µM
TGI (SW-620 colon): > 100000 nM
TGI (T-47D breast): > 100000 nM
TGI (TK-10 renal): > 100 µM
TGI (U251 CNS): > 100000 nM
TGI (UACC-62 melanoma): > 100 µM
TGI (UO-31 renal): > 100000 nM

O=C(C[C@@H]1NCCC[C@H]1O)Cn1cnc2cc(Br)c(Cl)cc2c1=O
TGI (786-0 renal): 135 nM
TGI (A498 renal): 316 nM
TGI (A549 NSCLC): 143 nM
TGI (ACHN renal): 1210 nM
TGI (BT-549 breast): 259 nM
TGI (CAKI-1 renal): 313 nM
TGI (CCRF-CEM leukemia): > 100 µM
TGI (COLO 205 colon): 39.1 nM
TGI (DU-145 prostate): 91.9 nM
TGI (EKVX NSCLC): 803 nM
TGI (HCC-2998 colon): 352 nM
TGI (HCT-116 colon): 121 nM
TGI (HCT-15 colon): 403 nM
TGI (HOP-62 NSCLC): 1010 nM
TGI (HOP-92 NSCLC): 110 nM
TGI (HS 578T breast): 1360 nM
TGI (HT29 colon): 191 nM
TGI (IGROV1 ovarian): 158 nM
TGI (K-562 leukemia): 72.7 nM
TGI (KM12 colon): 101 nM
TGI (LOX IMVI melanoma): 26.8 nM
TGI (M14 melanoma): 82.1 nM
TGI (MALME-3M melanoma): 144 nM
TGI (MCF7 breast): 20.3 µM
TGI (MDA-MB-231 breast): 285 nM
TGI (MDA-MB-435): 76 nM
TGI (MDA-N): 88.1 nM
TGI (MOLT-4 leukemia): > 100 µM
TGI (NCI-H226 lung): 47.3 nM
TGI (NCI-H23 lung): 110 nM
TGI (NCI-H460 lung): > 100 µM
TGI (NCI-H522 lung): 169 nM
TGI (NCI/ADR-RES ovarian): 603 nM
TGI (OVCAR-3 ovarian): 900 nM
TGI (OVCAR-4 ovarian): 80.9 nM
TGI (OVCAR-5 ovarian): 88.3 nM
TGI (OVCAR-8 ovarian): 125 nM
TGI (PC-3 prostate): 1400 nM
TGI (RPMI-8226 leukemia): 128 nM
TGI (RXF 393 renal): 81.4 nM
TGI (SF-268 CNS): 610 nM
TGI (SF-295 CNS): 337 nM
TGI (SF-539 CNS): 347 nM
TGI (SK-MEL-2 melanoma): 50 nM
TGI (SK-MEL-28 melanoma): 119 nM
TGI (SK-MEL-5 melanoma): 47.3 nM
TGI (SK-OV-3 ovarian): 813 nM
TGI (SN12C renal): 72.6 nM
TGI (SNB-19 CNS): 484 nM
TGI (SNB-75 CNS): 338 nM
TGI (SW-620 colon): 209 nM
TGI (T-47D breast): 82 nM
TGI (U251 CNS): 256 nM
TGI (UO-31 renal): 422 nM
